# Test system: SBP13-30 CHO cells
# Test: Acquired sensitivity to MTX of plasmid-transfected cells, crystal violet staining
# Format: cell-based, chinese hamster
# Details: 9 μM MTX, 0 μg DNA (non-transfected cells)
# Procedure: In order to assess the level of expression of the anti-sense DHFR sequence and whether its expression effectively blocks DHFR+ expression i.e. renders the cells more responsive/sensitive to MTX treatment, SBP13-30 CHO cells subjected to transfections with three different plasmid concentrations of adHFR2/Neo 0 (control), 100 and 500 μg plasmid DNA, were grown in the absence (controls) or in the presence of MTX (9 μM). Equal amounts of cells from each of the transfections were plated onto duplicate sets of Petri dishes containing standard CHO culture medium, one set receiving cells treated with MTX and the other set receiving untreated cells. When the cells in the dishes without MTX approached confluent growth, the experiment was terminated and the surviving cells were visualized by staining with crystal violet.
# As expected, with 0 μM MTX, heavy staining was observed. The staining was moderate-to-heavy in the 9 μM MTX/0 μg DNA dish. […] Cells transfected with high amounts of plasmid (500 μg plasmid DNA/dish) are more sensitive to MTX than cells transfected with lower amounts of plasmid (100 μg plasmid DNA/dish) or the non-transfected control cells (0 μg plasmid/dish). Thus, it is clear that the anti-sense DHFR plasmid successfully transfected the CHO cells and was expressed in these cells. […] In other words, the greater the DHFR^+ inhibition, the greater the MTX toxicity.
smiles,measurement,value
"CN(Cc1cnc2nc(N)nc(N)c2n1)c1ccc(C(=O)N[C@@H](CCC(=O)O)C(=O)O)cc1 [MTX, methotrexate]",crystal violet staining of surviving cells,moderate-to-heavy

# From US6399377B1, “Use of anti-sense sequences to increase responsiveness to gene amplification” (priority 1999, dated 2002)
